The target in test [1] is T1, HIV-1 protease (Human immunodeficiency virus type 1 group M subtype B, UniProt P04585). The test is described as follows: biochemical. The settings on record: for inhibition at 0.123 µM / inhibition at 0.37 µM / inhibition at 1.1 µM / inhibition at 3.3 µM / inhibition at 10 µM / inhibition at 30 µM: read-out: Protease % Inhib. The procedure, abridged:
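A substrate biotinylated at the N-terminal arginine and FITC-labelled at the C-terminal lysine was incubated with HIV-1 protease (10 μl of 0.1 μM) and compound for 1 h in the dark at room temperature. Buffer was 0.1 M sodium acetate pH 5.5, 1.0 M NaCl, 0.05% NP-40. Labelled product was separated from substrate using streptavidin beads and filtration, and the fluorescence gave percent inhibition.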

For test [2], the target named is T1, HIV-1 protease. The test is described as follows: biochemical. As to the method:
The HIV protease screening assay is based on fluorescently labeled substrate which can be resolved from nonlabeled cleavage product using special beads coated with streptavidin. The substrate is biotinylated at the amino terminal arginine and fluorescently labeled with fluorescein isothiocynate (FITC) at the carboxyl terminal lysine. […] Substrate ([…] of 0.2 μM), sample (10 μl of desired concentraion), and enzyme (10 μl of 0.1 μM) are added to a 96 well pandex plate. The assay is run in 0.1 M sodium acetate buffer at pH 5.5 in the presence of 1.0 M sodium chloride and 0.05% NP-40 with incubated in the dark for one hour at room temperature. Strepavidin coated polystyrene beads {40 μl of 0.1% (w/v)} are added and the plate is incubated in the dark for an additional half hour. The labeled cleavage product is separated from the unreacted substrate via filtration and is read on the Idexx screen machine. The data are analyzed by appropriate computer algorithms to ascertain percent inhibition values.
Determination of Ki values utilizes the same materials and equipment employed for percent inhibition studies. Two-fold serial dilutions are made for a given inhibitor from 2, 3 or 4 starting concentrations with a total of 24, 36 or 48 individual inhibitor concentrations. These dilutions are performed utilizing the BioMek robotics system. The assay consists of 10 μL of 40 nM HIV-1 protease, 10 μL of the various inhibitor concentrations, and 20 μL of 200 μM substrate (40 μL total). The reaction is allowed to proceed for 90 min at room temperature, terminated with 40 μL of avidin beads and processed (supra vide). An inhibitor with a known K; is run in parallel to verify the validity of the assay. The data is processed utilizing a computer program employing a nonlinear least square analysis of the data to generate the Ki values.

The mark [3] stands for this setting: Table I, read-out: HIV Protease FITC Assay Ki.

11 compounds from US6169181A, “Compounds useful to treat retroviral infections” (Pharmacia & Upjohn Company, priority 1998, dated 2001) can be followed below.

As a reminder, the Ki is the equilibrium dissociation constant of an inhibitor or competing ligand from its target.

Where two headings read alike, the source gives them in different places.

`CC(C)(C)C(C1=C(O)CC(CCC2CC2)(CCC2CC2)OC1=O)c1cccc(NS(=O)(=O)c2ccc(C#N)cn2)c1` (centres unmarked) [Example 265, N-[3-(1-[6,6-Bis-(2-cyclopropyl-ethyl)-5,6-dihydro-4-hydroxy-2-oxo-2H-pyran-3-yl]-2,2-dimethyl-propyl)phenyl]-5-cyano-2-pyridinesulfonamide]: the inhibition at 0.123 µM in test [1] (Table I, Dose 0.123 μM) was 33.2%. The inhibition at 0.37 µM in test [1] (Table I, Dose 0.370 μM) is 56.3%. Besides, the inhibition at 1.1 µM in test [1] (Table I, Dose 1.100 μM) was determined as 57.8%. In addition, the inhibition at 3.3 µM in test [1] (Table I, Dose 3.300 μM) is 63.7%. In test [1] (Table I, Dose 10.000 μM), the inhibition at 10 µM stood at 80.3%. In test [1] (Table I, Dose 30.000 μM), the inhibition at 30 µM was determined as 85.6%. Besides, the Ki in test [2] (setting [3]) was 1 nM.
As for `COCCOCCOCCOc1ccc2c(O)c(C(c3cccc(NS(=O)(=O)c4ccccn4)c3)C3CC3)c(=O)oc2c1` (centres unmarked) [Example 154, N-(3-{Cyclopropyl-[7-(2-(2-(2-methoxyethoxy)-ethoxy)ethoxy)-4-hydroxycoumarin-3-yl]-methyl}-phenyl)-2-pyridinesulfonamide], in test [1], the inhibition at 0.123 µM turned out to be 99.8%, the inhibition at 0.37 µM amounted to 98.2%, the inhibition at 1.1 µM was 99.5% and the inhibition at 3.3 µM amounted to 97.6%. Besides, in test [1], the inhibition at 10 µM was determined as 104% and the inhibition at 30 µM came out at 99.2%. Also, the inhibition constant (Ki) in test [2] (HIV Protease FITC Assay Ki) was found to be 0.22 nM.
Regarding `CCCC1(CCc2ccccc2)CC(O)=C(C(c2cccc(NS(=O)(=O)c3ccc(F)cc3)c2)C2CC2)C(=O)O1` (centres unmarked) [Example 59], the inhibition at 0.123 µM in test [1] (Table I, Dose 0.123 μM) amounted to 76.7%. The inhibition at 0.37 µM in test [1] (Table I, Dose 0.370 μM) came to 90.5%. Also, the inhibition at 1.1 µM in test [1] (Table I, Dose 1.100 μM) worked out at 102%. Also, the inhibition at 3.3 µM in test [1] (Table I, Dose 3.300 μM) stood at 99.9%. In test [1] (Table I, Dose 10.000 μM), the inhibition at 10 µM was 105%. Moreover, in test [1] (Table I, Dose 30.000 μM), the inhibition at 30 µM stood at 102%. For the same compound, in test [2] (setting [3]), the Ki is 3.5 nM.
In the case of `O=c1oc2c(c(O)c1C(c1cccc(CS(=O)(=O)c3ccc(F)cc3)c1)C1CC1)CCCCCC2` (centres unmarked) [Example 12, 3-[cyclopropyl[3-[(4-fluorophenylsulfonyl)methyl]phenyl]methyl]-5,6,7,8,9,10-hexahydro-4-hydroxy-2H-cycloocta[b]pyran-2-one], the inhibition at 0.123 µM in test [1] (Table I, Dose 0.123 μM) came to 75.7%. For the same compound, the inhibition at 0.37 µM in test [1] (Table I, Dose 0.370 μM) is 87.2%. Moreover, in test [1] (Table I, Dose 1.100 μM), the inhibition at 1.1 µM was determined as 91.8%. The inhibition at 3.3 µM in test [1] (Table I, Dose 3.300 μM) stood at 91.1%. Moreover, the inhibition at 10 µM in test [1] (Table I, Dose 10.000 μM) amounted to 94.7%. In addition, in test [1] (Table I, Dose 30.000 μM), the inhibition at 30 µM amounted to 95.7%. For the same compound, in test [2] (setting [3]), the Ki came out at 2.15 nM.
For the compound `Cc1ccc(S(=O)(=O)Cc2cccc(C(c3c(O)c4c(oc3=O)CCCCCC4)C3CC3)c2)cc1` (centres unmarked) [Example 13, 3-[cyclopropyl[3-[(4-methylphenylsulfonyl)methyl]phenyl]methyl]-5,6,7,8,9,10-hexahydro-4-hydroxy-2H-cycloocta[b]pyran-2-one], the inhibition at 0.123 µM in test [1] (Table I, Dose 0.123 μM) was 68.9%. The inhibition at 0.37 µM in test [1] (Table I, Dose 0.370 μM) turned out to be 88.1%. Besides, in test [1] (Table I, Dose 1.100 μM), the inhibition at 1.1 µM came out at 94%. The inhibition at 3.3 µM in test [1] (Table I, Dose 3.300 μM) came out at 95.5%. For the same compound, in test [1] (Table I, Dose 10.000 μM), the inhibition at 10 µM stood at 98.6%. Further, the inhibition at 30 µM in test [1] (Table I, Dose 30.000 μM) is 104%. In addition, in test [2] (setting [3]), the Ki was found to be 4.15 nM.
On to “4-Pyridylsulfonamide, N-[4-[cyclopropyl(5,6,7,8,9,10-hexahydro-4-hydroxy-2-oxo-2H-cycloocta[b]pyran-3-yl)methyl]phenyl]- [Example 240]”, for which the “PROTEASE % INHIB.” value in test [1] (Table I, Dose 0.123 μM) is 96.32%; in test [1] (Table I, Dose 0.370 μM) it was 100.98%; in test [1] (Table I, Dose 1.100 μM), 102.71%; in test [1] (Table I, Dose 3.300 μM) it was 101.88%; in test [1] (Table I, Dose 10.900 μM) it was 104.28%; in test [1] (Table I, Dose 30.000 μM), 107.17%. Also, the Ki in test [2] (setting [3]) was 1.3 nM.
For the compound `CCCC1(CCc2ccccc2)CC(O)=C(C(CC)c2cccc(NS(=O)(=O)c3cccc4cccnc34)c2)C(=O)O1` (centres unmarked) [Example 42, N-[3-[1-(4-hydroxy-2-oxo-6-phenethyl-6-propyl-5,6-dihydro-2H-pyran-3-yl)-propyl]-phenyl]-8-quinolinesulfonamide], in test [1], the inhibition at 0.123 µM worked out at 86.2%, the inhibition at 0.37 µM stood at 103%, the inhibition at 1.1 µM came to 98.3% and the inhibition at 3.3 µM is 102%. Further, in test [1], the inhibition at 10 µM came to 91.4% and the inhibition at 30 µM is 76.1%. In addition, the Ki in test [2] (read-out: HIV Protease FITC Assay Ki) was 3.1 nM.
Take `CCCC1(CCC)CC(O)=C(C(c2cccc(NS(=O)(=O)c3cn(C)cn3)c2)C2CC2)C(=O)O1` (single isomer, unassigned) [Example 56, (R or S)-N-[3-[1-(4-Hydroxy-2-oxo-6,6-dipropyl-5,6-dihydro-2H-pyran-3-yl)-cyclopropylmethyl]-phenyl]-1-methyl-1H-imidazole-4-sulfonamide]: the inhibition at 0.123 µM in test [1] (Table I, Dose 0.123 μM) amounted to 104%. Besides, the inhibition at 0.37 µM in test [1] (Table I, Dose 0.370 μM) came out at 108%. In addition, the inhibition at 1.1 µM in test [1] (Table I, Dose 1.100 μM) was determined as 105%. For the same compound, the inhibition at 3.3 µM in test [1] (Table I, Dose 3.300 μM) is 105%. In test [1] (Table I, Dose 10.000 μM), the inhibition at 10 µM amounted to 115%. For the same compound, the inhibition at 30 µM in test [1] (Table I, Dose 30.000 μM) stood at 111%. Moreover, the Ki in test [2] (setting [3]) was 0.23 nM.
As to `CC[C@H](Cc1ccccc1)c1cc(O)c(C(c2cccc(NS(=O)(=O)c3nc4ccccc4[nH]3)c2)C2CC2)c(=O)o1` (stereo partly drawn) [Example 146, N-(3-{Cyclopropyl-[6-(1-(R)-ethylphenethyl)-4-hydroxy-2-oxo-2H-pyran-3-yl]-methyl}-phenyl)-benzimidazole-2-sulfonamide], the inhibition at 0.123 µM in test [1] (Table I, Dose 0.123 μM) was 68.1%. For the same compound, the inhibition at 0.37 µM in test [1] (Table I, Dose 0.370 μM) is 87.4%. Besides, the inhibition at 1.1 µM in test [1] (Table I, Dose 1.100 μM) was determined as 103%. For the same compound, the inhibition at 3.3 µM in test [1] (Table I, Dose 3.300 μM) came to 103%. Moreover, the inhibition at 10 µM in test [1] (Table I, Dose 10.000 μM) is 103%. In test [1] (Table I, Dose 30.000 μM), the inhibition at 30 µM worked out at 102%. For the same compound, in test [2] (setting [3]), the Ki is 0.69 nM.
On to `CCCC1(CCc2ccc(F)cc2)CC(O)=C(C(c2cccc(NS(=O)(=O)c3cn(C)cn3)c2)C(C)(C)C)C(=O)O1` (centres unmarked) [Example 252, N-[3-{1-(4-Hydroxy-5,6-dihydro-2-oxo-6-(2-(4-fluorophenyl)ethyl)-6-propyl-2H-pyran-3-yl)-2,2-dimethylpropyl}phenyl]-1-methyl-1H-imidazole-4-sulfonamide], for which the inhibition at 0.123 µM in test [1] (Table I, Dose 0.123 μM) was found to be 70%. In addition, the inhibition at 0.37 µM in test [1] (Table I, Dose 0.370 μM) turned out to be 85%. Further, the inhibition at 1.1 µM in test [1] (Table I, Dose 1.100 μM) amounted to 89.7%. Moreover, the inhibition at 3.3 µM in test [1] (Table I, Dose 3.300 μM) amounted to 101%. Moreover, the inhibition at 10 µM in test [1] (Table I, Dose 10.000 μM) worked out at 96.2%. In test [1] (Table I, Dose 30.000 μM), the inhibition at 30 µM amounted to 91.4%. The Ki in test [2] (setting [3]) is 1.6 nM.
Consider `CCCC1(CCc2ccccc2)CC(O)=C(C(c2cccc(NS(=O)(=O)c3cn(C)cn3)c2)C2CC2)C(=O)O1` (centres unmarked) [Example 61], for which, in test [1] (Table I, Dose 0.123 μM), the inhibition at 0.123 µM was determined as 86.8%. Besides, in test [1] (Table I, Dose 0.370 μM), the inhibition at 0.37 µM was found to be 95.5%. In test [1] (Table I, Dose 1.100 μM), the inhibition at 1.1 µM came out at 103%. Also, the inhibition at 3.3 µM in test [1] (Table I, Dose 3.300 μM) was 103%. Moreover, in test [1] (Table I, Dose 10.000 μM), the inhibition at 10 µM was found to be 106%. In addition, the inhibition at 30 µM in test [1] (Table I, Dose 30.000 μM) worked out at 104%. Moreover, the Ki in test [2] (setting [3]) is 0.71 nM.
